Consider eleven compounds from PubChem BioAssay (NCI).

SMILES strings stand for the structures. In brackets after ≈: the same amount, converted by molar mass.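 Cultured in 96-well plates, cells were exposed to test compound for 48 hours across five concentrations. Here, GI50 denotes the concentration required for 50% inhibition of growth. TGI marks complete inhibition of growth.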 Activity calls are given as the source filed them. Cut-off read from the data, not from the text of the source: active = GI50 below about 0.43 µM; inactive = the rest.

Test in all cases: NCI anticancer screen, dose series, 48 h
Experiment [1] deals with DMS 114 small cell lung.
For experiment [2], the system named is HCC-2998 colon.
Experiment [3] concerns KM20L2 colon.
For experiment [4], the system named is RPMI-8226 leukemia.
Experiment [5] relates to RXF 393 renal.
For experiment [6], the system named is SK-MEL-28 melanoma.
In experiment [7] the test system is LXFL 529 NSCLC.
The test system of experiment [8] is SNB-78 CNS.
The test system of experiment [9] is XF 498 CNS.
Experiment [10] has as its system DMS 273 small cell lung.

In the case of `O=C(Nc1c(Cl)cc([N+](=O)[O-])cc1Cl)/C(=N\Nc1cccc(Cl)c1)c1c(O)c2ccccc2oc1=O`, the TGI in experiment [1], in experiment [2], in experiment [3], in [4], in [5] and in experiment [6] was over 100 µM each time.
Take `CCOC(=O)/C=C/c1ccccn1`: the TGI in experiment [1], in experiment [2], in experiment [7], in [4], in experiment [6] and in [8] was over 100 µM in each case. The compound further registered a TGI in experiment [9] of over 100 µM.
Turning to `CCN(CC)CCOc1ccc(C(=C2CCCCC2)c2ccc(OCCN(CC)CC)cc2)cc1`, the TGI turned out to be 2.93 µM in experiment [10]; 2.62 µM in experiment [2]; 2.55 µM in [3]; 3.06 µM in experiment [7]; 4.94 µM in experiment [4]; 3.14 µM in experiment [5]. Moreover, the TGI in [6] worked out at 2.64 µM; in experiment [9], 2.29 µM.
Regarding `CC1OC(OC2CC(O)(C(=O)CO)Cc3c(O)c4c(c(O)c32)C(=O)c2ccccc2C4=O)CC(N)C1O` (centres undefined), the TGI in experiment [1] is 0.0412 µM; in experiment [10], under 0.0278 µM; in [2], 0.084 µM; in [3], 0.779 µM; in [7], 0.347 µM; in experiment [4], 0.235 µM. In addition, the TGI in experiment [5] was determined as 0.152 µM; in experiment [6], 0.368 µM; in [8], 0.898 µM; in [9], 0.588 µM.
For `Cc1ccc(C2=C(c3ccccc3)C(O)(c3ccc(C)cc3)C(c3ccccc3)=C2c2ccc(C)cc2)cc1`, the TGI in [1], in experiment [10], in experiment [2], in experiment [3], in experiment [7] and in experiment [4] was over 100 µM throughout. The TGI in experiment [6], in experiment [8] and in [9] was over 100 µM in each case.
Take `CC(=O)NC(CCCCNC(=O)N(C)N=O)C(=O)NCc1ccccc1` (centres undefined): the TGI in [1], in experiment [10], in experiment [2], in experiment [3], in experiment [7] and in experiment [4] was over 100 µM throughout. For the same compound, the TGI in experiment [5], in [6], in experiment [8] and in experiment [9] was over 100 µM in each case.
For the compound `NC(N)=Nc1nc2ccccc2[nH]1`, the GI50 in experiment [1] was 10.5 µg/mL (≈ 59.8 µM); in [10] it was 46.4 µg/mL (≈ 265 µM); in experiment [2], 34.1 µg/mL (≈ 195 µM); in experiment [4], 2.98 µg/mL (≈ 17 µM); in experiment [5] it was 72.5 µg/mL (≈ 414 µM); in experiment [6] it was 135 µg/mL (≈ 769 µM). In addition, the GI50 in experiment [8] was 150 µg/mL (≈ 856 µM). The TGI is 68 µg/mL in experiment [1]; over 150 µg/mL in experiment [10]; over 150 µg/mL in experiment [2]; 29.7 µg/mL in experiment [4]; over 150 µg/mL in experiment [5]; over 150 µg/mL in [6]. In [8], the TGI was over 150 µg/mL. Moreover, the result in experiment [3] and in experiment [9] was inactive.
For the compound `O=c1[nH]c(=O)n(C2CC(O)C(CO)O2)cc1C#Cc1cc(F)cc(F)c1` (centres undefined), the TGI in [1], in [10], in experiment [2], in [7], in experiment [4] and in experiment [6] was over 100 µM in each case. Besides, the TGI in [8] and in [9] was over 100 µM each time.
Consider `COC(=O)C(Cc1nc2ccccc2[nH]c1=O)C(=O)C(=O)Nc1ccc(OC)cc1[N+](=O)[O-]` (centres undefined), for which the TGI in [2], in experiment [3], in experiment [7], in experiment [4], in [6] and in experiment [8] was over 100 µM each time. This compound also yielded a TGI in experiment [9] of over 100 µM.
As to `O=C(CSc1nnc(-c2ccc(N=Cc3ccc(Cl)cc3)cc2)o1)Nc1cccc(Cl)c1`, the TGI in experiment [1], in [10], in experiment [3], in experiment [7], in experiment [4] and in [5] was over 100 µM throughout. For the same compound, the TGI in experiment [6], in experiment [8] and in experiment [9] was over 100 µM in each case.
In the case of `S=C(Nc1ccccc1)N1N=C2c3ccccc3CC[C@H]2[C@@H]1c1ccccc1`, the TGI in [1], in [2], in experiment [3], in experiment [7], in experiment [4] and in experiment [5] was over 100 µM in each case. The TGI in experiment [6], in [8] and in [9] was over 100 µM throughout.
